Assay results: publication PMC6776155 (Breeding Science, 2019)

System: TrGDH (His6-TF-TrGDH)
Assay: NADPH oxidation at […] nm, Lineweaver-Burk
Type: biochemical, Trichurus sp.
Details: amination; 2-OG 1-10 mM, 100 μM NADPH, NH4Cl co-substrate, Tris pH 8.0, 25 °C

Km: 1570 ± 190 µM
Compound: O=C(O)CCC(=O)C(=O)O [2-oxoglutarate]
